Broadly, the IC50 is the concentration at which inhibition is half-maximal. Low values mean higher potency, high ones lower potency. For orientation: logP means the decadic logarithm of the partition coefficient of the neutral form, usually between octanol and water. The low end stands for a more hydrophilic compound, the high end for a more lipophilic compound.

The source of these data is ChEMBL document CHEMBL5113544, “Development of Brain-Tumor-Targeted Benzothiazole-Based Boron Complex for Boron Neutron Capture Therapy” (ACS Med Chem Lett, 2022).

Data set [1] in a line: Cytotoxicity against HEK293 cells assessed as cell survival at upto 100 uM incubated for 22 hrs by cell counting kit analysis relative to control. Format: toxicity, cell-based. The conditions noted are these: human, read-out: Survival.
Data set [2] in a line: Cytotoxicity against human U-87 MG cells assessed as cell survival at 100 uM incubated for 22 hrs by cell counting kit analysis relative to control. Format: functional, U-87MG ATCC. The conditions noted are these: read-out: Survival. (In general: Formazan colour is commonly taken as a measure of viable cells.)
Data set [3] can be described thus: Effective permeability of the compound in pH 7.4 at 25 uM incubated for 4 hrs by PAMPA-BBB assay. Format: ADME. The conditions noted are these: read-out: Peff.
Data set [4] is described as follows: Cytotoxicity against HEK293 cells incubated for 22 hrs by cell counting kit analysis. Format: toxicity, cell-based. As to conditions: human; call rule not given here.
Data set [5] in a line: Biodistribution in blood of BALB/c nude mouse xenografted with human U-87 MG cells assessed as boron concentration at 500 mg/kg, ip measured 4 hrs post injection by ICP-MS analysis. Format: ADME, organism-based. As to conditions: in vivo. A general note: A xenograft is tissue or cells of one species grown in another, often human tumour cells in immunodeficient mice.
The nature of data set [6]: Cytotoxicity against human U-87 MG cells incubated for 22 hrs by cell counting kit analysis. Format: functional, cell-based, U-87MG ATCC.
Data set [7] in a line: Octanol/water partition coefficient, logP of compound at 10 mg incubated for 24 hrs by ICP-MS analysis. Format: physicochemical.
In the next data set the test system is HEK293. As to the kind of experiment: Cytotoxicity against HEK293 cells assessed as reduction in cell survival at higher concentrations incubated for 22 hrs by cell counting kit analysis. The conditions noted are these: human, hek293, 22 h. Format: toxicity, cell-based.

The structures appear in SMILES notation.

For the molecule `OB(O)c1ccc(-c2nc3ccccc3s2)cc1`, in data set [1], the viability at 22 h, up to 100 µM is above 95%. Also, the viability at 100 µM in data set [2] is below 43%. In addition, in data set [3], the Papp at 4 h, 25 µM amounted to 59.8 ×10⁻⁶ cm/s. This molecule registered an IC50 at 22 h in data set [4] of 265 µM. The Drug uptake entry in data set [5] is given as “Active”. The same molecule registered an IC50 in data set [6] of 112 µM. In data set [7], this molecule yielded a logP at 24 h of 0.32. For the same molecule, in the data set on HEK293, the Activity entry is “Toxic”.
